{
  "source": "patent US9061052B2",
  "about": "“Aqueous extract of tobacco leaves, its uses in the treatment of dependence” (NFL BIOSCIENCE, priority 2006, dated 2015)",
  "origin": "cited, not measured here",
  "test_system": "tobacco dependence",
  "conditions": "in vivo",
  "data": [
    {"compound": "CC(NC(C)(C)C)C(=O)c1cccc(Cl)c1", "note": "(stereo not shown) [Zyban, bupropion]", "values": [
      {"measurement": "Adverse effects", "value": "dry mouth sensation, insomnia and dizziness"}
    ]}
  ]
}
